Where two headings read alike, the source gives them in different places.
Tests used:
Arabidopsis plants [1] = assay: pHBA analysis in tissue of transgenic plants by acid hydrolysis and HPLC; type: in vivo, Arabidopsis thaliana; conditions: for Whole stalk pHBA highest: best primary transformant; for Whole stalk pHBA highest / Basal stalk pHBA average / Basal stalk pHBA highest: Table 5; for Basal stalk pHBA average / Basal stalk pHBA highest: primary transformants, eight weeks; for Basal stalk pHBA average: 2 cm stem segment at base; for pHBA levels relative to the best 35S HCHL line: whole stalk tissue, best lines
Method: If not stated otherwise, plants were grown under standard conditions ([…], 12 h darkness) in a greenhouse. Plants expressing HCHL genes where grown at 100 μE m^−2 sec^−1, 14 h light (23° C.), 12 h (18° C.) darkness and 70% relative humidity in growth chambers (Conviron, USA). Sterile plant cultures were maintained under identical conditions in a plant growth chamber (Percival, USA).
Arabidopsis thaliana plants were transformed using Agrobacterium strains (C58, C1 GV3101 MP90) (Koncz, C. and Schell, J., Mol. Gen. Genet., 204:383-396 (1986)) and published protocols of the in-planta transformation method (Desfeux et al., Plant Physiology, 123(3):895-904 (2000)). Selection for transformants carrying the NPTII gene was conducted on sterile growth media in the presence of 50 mg/L kanamycin. Selection for transformants carrying the BAR gene was conducted on sterile growth media in the presence of 7.5 mg/L glufosinate or by germinating seed in soil followed by spray-application of an aqueous solution (6 mg/L) of glufosinate herbicide (Sigma, USA) 7 days after germination. Plants destined for plant transformation experiments were grown under permanent light at 23° C. to accelerate flower development.
pHBA was quantitated in plant tissue by HPLC analysis. For determination of pHBA conjugates, fresh oven-dried or lyophilized tissue was extracted with 50% MeOH. To quantitate free pHBA plant samples (fresh, dried, lyophilized plant tissue or dried-down methanol extracts of plant tissue) were subjected to acid hydrolysis. Dried or lyophilized tissue was ground to a fine powder using a Cyclotec 1093 tissue mill (Foss Tecator, Sweden) prior to hydrolysis. Tissue (5-25 mg of dried or lyophilized material, 10-100 mg of fresh tissue) was supplemented with 500-750 μL of 1M HCl and incubated at 100° C. for 1-3 h. The hydrolysate was adjusted to alkaline pH by addition of one volume of 1.1 M NaOH.

[2] = tested on: Pseudomonas fluorescens AN103 HCHL (4-hydroxycinnamoyl-CoA hydratase/lyase); conditions: published, Mitra et al., Arch. Biochem. Biophys., 365(1):6-10 (1999); cited from earlier work
[3] = tested on: Pseudomonas putida (DSM 12585) HCHL (4-hydroxycinnamoyl-CoA hydratase/lyase), variant with C-terminal hexa-histidine tag, SEQ ID NO:10; assay: Kinetic properties of the purified his-tagged HCHL enzyme from Pseudomonas putida (DSM 12585); HPLC quantitation of pHBALD / vanillin; conditions: for Km / Vmax: his-tagged enzyme, 5.5 min; for Km: 100 mM Tris/HCl pH 8.5, 30° C., pHCACoA 343 to 2.7 μM, feruloylCoA 293 to 2.3 μM; for Vmax: pH 8.5, 30° C.
Method: A second expression construct was generated that expresses a variant of the HCHL protein that carries a C-terminal hexa-histidine tag.
LB medium (200 mL containing 50 mg/L kanamycin) was inoculated with a single colony of E. coli BL21 DE3 cells harboring the pET29a HCHL 6×His Tag expression construct. Cells were grown to an ODλ=600 nm of 0.6 and protein production was induced by addition of 0.2 mM IPTG. Cells were grown at room temperature for 24 h. Cells were harvested by centrifugation (5000×g for 10 min) and resuspended in 2.5 mL of 100 mM Tris/HCl (pH 8.5), 20 mM DTT, and 300 mM NaCl. The cell suspension was passed twice through a French press and cleared by centrifugation (30000×g, 20 min, at 4° C.). The cell-free extract was buffer-exchanged using PD10 columns into 20 mM NaPO4 (pH 7.5), 500 mM NaCl, and 10 mM imidazole and loaded on a 5 mL HiTrap chelating chromatography cartridge (Amersham Pharmacia, USA). The column was washed with 20 mL of loading buffer and 20 mL of loading buffer containing 70 mM imidazole. The his-tagged HCHL protein was eluted from the column with a linear gradient from 70-1000 mM imidazole in loading buffer.

[4] = tested on: Pseudomonas putida (DSM 12585) HCHL (4-hydroxycinnamoyl-CoA hydratase/lyase), native, SEQ ID NO:6
Method: LB medium (500 mL containing 50 mg/L) kanamycin was inoculated with a single colony of E. coli BL21 DE3 cells harboring the pET HCHL expression construct. Cells were grown to an ODλ=600 nm of 0.6 and protein production was induced by the adding of 0.2 mM IPTG. Cells were grown at room temperature for 24 h. Cells were harvested by centrifugation (5000×g for 10 min) and resuspended in 15 mL of 100 mM Tris/HCl (pH 8.5), 20 mM DTT, and 300 mM NaCl. […] Two 2.5-mL aliquots of the cell-free extract were buffer-exchanged using PD10 columns into 50 mM Tris/HCl (pH 7.6), 10 mM Na2SO3, and 1 mM EDTA. Buffer-exchanged extract (7 mL) was loaded onto a Q-sepharose column (15 mL gel bed volume). […] A fraction with HCHL activity was purified further by chromatography on hydroxyapatide (Biorad Econo-Pac cartridge CHT-II, 1 mL gel bed volume (Biorad, Calif., USA)). Approximately 2.5 mL was buffer-exchanged into (10 mM NaPO4, (pH 6.8) and 10 μM CaCl2).

[5] = molecular target: T1, Caulobacter crescentus HCHL (4-hydroxycinnamoyl-CoA hydratase/lyase), SEQ ID NO:61 (Caulobacter vibrioides, UniProt Q9A5P6); conditions: Table 12; 0.8 ng enzyme, pHCACoA 0.9 to 440 μM
T1 sequence (Q9A5P6 1-275): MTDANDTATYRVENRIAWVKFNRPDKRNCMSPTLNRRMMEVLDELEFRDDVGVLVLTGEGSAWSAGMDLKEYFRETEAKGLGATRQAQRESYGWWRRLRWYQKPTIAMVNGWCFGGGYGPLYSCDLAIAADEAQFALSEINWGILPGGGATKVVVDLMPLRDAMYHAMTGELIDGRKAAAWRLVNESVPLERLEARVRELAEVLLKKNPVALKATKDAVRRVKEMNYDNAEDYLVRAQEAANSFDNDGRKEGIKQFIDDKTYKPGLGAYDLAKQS

Arabidopsis plants [6] = conditions: in vivo
[7] = HCHL enzyme activity in leaf and stalk tissue of transgenic plants; conditions: leaf, T2 lines, eight weeks, Table 6
Excerpt: For this experiment the basal stem segment was used.
The primary transformants were self crossed and T2 seed material was germinated on selective media containing glufosinate, transferred to soil, and grown for eight weeks. Leaf and stalk tissue was harvested and subjected to pHBA analysis and assayed for HCHL activity (Table 6).
T2 plants of the Caulobacter and Pseudomonas fluorescens HCHL transgenics were germinated on selective media and grown in soil for 6 weeks to obtain sufficient stalk tissue for analysis of HCHL enzyme activity.

[8] = substrate: CC(C)(COP(=O)(O)OP(=O)(O)OC[C@H]1O[C@@H](n2cnc3c(N)ncnc32)[C@H](O)[C@@H]1OP(=O)(O)O)[C@@H](O)C(=O)NCCC(=O)NCCSC(=O)/C=C/c1ccc(O)cc1; assay: purified protein, by the assay type; conditions: other: Table 12, 0.8 ng enzyme, pHCACoA 0.9 to 440 μM, pH 8.5, 30° C.
[9] = HCHL enzyme assay, kinetic properties of purified recombinant HCHL with pHCACoA; type: biochemical; conditions: compared to the Pseudomonas fluorescens AN103 enzyme
Excerpt: The reaction mixture was cleared by centrifugation.

[10] = native enzyme, Example 1, pH 8.5, 30° C.

4CL1 HCHL: Arabidopsis 4CL1 promoter fused to P. putida HCHL coding sequence, SEQ ID NO:28
Whole stalk pHBA highest (Arabidopsis plants [1]): 12.93 (line 183) mg/g DW
Basal stalk pHBA average (Arabidopsis plants [1]): 0.55 mg/g FW
Basal stalk pHBA highest (Arabidopsis plants [1]): 3.87 mg/g FW
pHBA levels relative to the best 35S HCHL line (Arabidopsis plants [1]): 60%

COc1cc(/C=C/C(=O)SCCNC(=O)CCNC(=O)[C@H](O)C(C)(C)COP(=O)(O)OP(=O)(O)OC[C@H]2O[C@@H](n3cnc4c(N)ncnc43)[C@H](O)[C@@H]2OP(=O)(O)O)ccc1O [feruloylCoA]
Km [2]: 2.4 µM
Vmax [2]: 36.5 nkat/mg
Km [3]: 2.39 µM
Vmax [3]: 37.3 nkat/mg

CC(C)(COP(=O)(O)OP(=O)(O)OC[C@H]1O[C@@H](n2cnc3c(N)ncnc32)[C@H](O)[C@@H]1OP(=O)(O)O)[C@@H](O)C(=O)NCCC(=O)NCCSC(=O)/C=C/c1ccc(O)cc1 [pHCACoA, para-coumaroyl-CoA]
Vmax ([4]; Table 12, 1.4 ng enzyme, pHCACoA 0.9 to 440 μM): 43 nkat mg^−1
Km ([4]; Table 12, 1.4 ng enzyme, pHCACoA 0.9 to 440 μM, pH 8.5, 30° C.): 2.4 µM
catalytic center activity (per enzyme dimer) ([4]; from Vmax with pHCACoA, using 30,865.1 Da per monomer): 2.65 s⁻¹
Km [4, 10]: 2.4 µM
Vmax [4, 10]: 43 nkat/mg
Vmax [5]: 240 nkat mg^−1
Km [2]: 5.3 µM
Vmax [2]: 73 nkat/mg
catalytic center activity (per enzyme dimer) ([3]; from Vmax with pHCACoA, using 32,348.8 Da per monomer): 3.4 s⁻¹
Km [3]: 2.53 µM
Vmax [3]: 53.8 nkat/mg

AtCesA7 (IRX3) HCHL: Arabidopsis AtCesA7 (IRX3) promoter fused to P. putida HCHL coding sequence, SEQ ID NO:30
Whole stalk pHBA highest (Arabidopsis plants [1]): 12.96 (line 366) mg/g DW
Basal stalk pHBA average (Arabidopsis plants [1]): 1.21 mg/g FW
Basal stalk pHBA highest (Arabidopsis plants [1]): 3.91 mg/g FW
pHBA levels relative to the best 35S HCHL line (Arabidopsis plants [1]): 60%
plant phenotype (Arabidopsis plants [6]): phenotypically indistinguishable from wild type plants
HCHL activity [7]: no detectable HCHL activity

C3′H HCHL: Arabidopsis C3′H promoter fused to P. putida HCHL coding sequence, SEQ ID NO:29
Whole stalk pHBA highest (Arabidopsis plants [1]): 9.52 (line 227) mg/g DW
Basal stalk pHBA average (Arabidopsis plants [1]): 0.41 mg/g FW
Basal stalk pHBA highest (Arabidopsis plants [1]): 1.65 mg/g FW

C4H HCHL: Arabidopsis C4H promoter fused to P. putida HCHL coding sequence, SEQ ID NO:27
Whole stalk pHBA highest (Arabidopsis plants [1]): 23.42 (line 35) mg/g DW
Basal stalk pHBA average (Arabidopsis plants [1]): 0.89 mg/g FW
Basal stalk pHBA highest (Arabidopsis plants [1]): 5.54 mg/g FW
pHBA levels relative to the best 35S HCHL line (Arabidopsis plants [1]): 106%

B1: Caulobacter crescentus HCHL (4-hydroxycinnamoyl-CoA hydratase/lyase), SEQ ID NO:61 (Caulobacter vibrioides CB15) (protein)
chain: MTDANDTATYRVENRIAWVKFNRPDKRNCMSPTLNRRMMEVLDELEFRDDVGVLVLTGEGSAWSAGMDLKEYFRETEAKGLGATRQAQRESYGWWRRLRWYQKPTIAMVNGWCFGGGYGPLYSCDLAIAADEAQFALSEINWGILPGGGATKVVVDLMPLRDAMYHAMTGELIDGRKAAAWRLVNESVPLERLEARVRELAEVLLKKNPVALKATKDAVRRVKEMNYDNAEDYLVRAQEAANSFDNDGRKEGIKQFIDDKTYKPGLGAYDLAKQS
Km [8]: 4 µM
improvement of catalytic efficiency (Kcat/Km) [9]: 50%
